Reference: patent US20240316061A1, “BET INHIBITORS FOR TREATING PAB1 DEFICIENT CANCER” (INSTITUT CURIE, priority 2021, published 2024)

Legend:
Type in all cases: cell-based
[1] = test system: uveal melanoma derived cells wild type for BAP1 (MP41 and MM66) or BAP1 inactivated (MP46 and MP38); test: Proliferation of uveal melanoma derived cells exposed to OTX015, MTT assay; conditions: increasing concentration for 12 days; MP46, MP38 vs MP41, MM66; FIG. 2
Procedure: Proliferation of uveal melanoma derived cells either wild type for BAP1 (MP41 and MM66) or for which BAP1 is inactivated (MP46 and MP38). Cells were exposed to increasing concentration of OTX015 for 12 days, Proliferation was measured using the MTT assay.

[2] = test system: human BAP1 cells either wild type or BAP1 knockout; test: Proliferation of BAP1 wild type or BAP1 knockout cells exposed to OTX015, Cell Titer Glow; conditions: increasing dose for 12 days, compound renewed after 6 days; FIG. 1
Procedure: Proliferation of human BAP1 cells either wild type or BAP1 knockout (generated by genome editing) exposed to increasing dose of OTX015 for 12 days Cells were grown in IMDM and compound was renewed after 6 days. Cell viability was measured using Cell Titer Glow.

[3] = test system: isogenic HAP1 cells (Wild-type or BAP1 knockout); test: Proliferation of isogenic HAP1 cells exposed to BI894999, CellTiter-Glo; conditions: increasing concentration for 7 days; FIG. 3
Procedure: Proliferation of isogenic HAP1 cells (Wild-type or BAP1 knockout) exposed to increasing concentration of the BET inhibitor BI894999 for 7 days. Proliferation was measured using the CellTiter-Glo Luminescent Cell Viability assay.

Compound	Dose response (proliferation) in BAP1 mutated UM derived cells compared to UM cells expressing BAP1 [1]	Dose response (proliferation) of BAP1 KO cells compared to BAP1 WT cells [2]	Dose response (proliferation) in BAP1 knockout HAP1 cells compared to HAP1 cells expressing BAP1 [3]
Cc1sc2c(c1C)C(c1ccc(Cl)cc1)=N[C@@H](CC(=O)Nc1ccc(O)cc1)c1nnc(C)n1-2 [OTX015]	enhanced dose response	highest dose response	
CNc1nc(-c2nc3ccc(N4CCN(C)CC4)cc3n2Cc2ccccc2)cn2c(C)nnc12 [BI894999]			enhanced dose response
